# Starred links: 1 amine or outer side, 2 acyl side, 3 side chain; linkers in the order of their positions; H or OH if unused. Non-standard residues stand in square brackets, D forms with d. Residues, ends and D or L forms follow the SMILES beside them. Groups on a side chain read outwards from the residue. *: point of attachment. C18 diacid = O=C(O)CCCCCCCCCCCCCCCCC(=O)*; γGlu = O=C(O)[C@H](CCC(=O)[*:2])N[*:1]; Ac4c = NC1(C(=O)O)CCC1; AEEA = NCCOCCOCC(=O)O; Aib = CC(C)(N)C(=O)O
# Columns and labels:
# [1] = molecular target: T1, human GLP-1 receptor (Homo sapiens, UniProt P43220); experiment: Assay (II)(a) GLP-1 receptor binding, 125I-GLP-1 displacement SPA on BHK membranes; details: without presence of serum albumin; read-out: GLP-1R IC50 (nM) [Assay (II)(a)]
# T1 construct: expressed in transfected cells; host or cells: membranes of BHK cells (parent BHKTS13), clone FCW467-12A
# Method in brief: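 Membranes from BHK cells (clone FCW467-12A) stably expressing human GLP-1R were incubated with serially diluted compounds (8×10EE-13 to 8×10EE-7 M before addition) and [125I]-GLP-1-(7-36)NH2 with WGA SPA beads, 2 h at 30° C, pH 7.4. IC50 taken from displacement by non-linear regression. Run at ≤0.001% or 2.0% final serum albumin.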
# [2] = molecular target: T1, human GLP-1 receptor; experiment: Assay (I)(a) GLP-1 receptor activation, CRE luciferase reporter gene assay in BHK cells; assay type: cell-based; details: without presence of serum albumin; read-out: GLP-1R EC50 (pM) [Assay (I)(a)]
# Method in brief: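 Stable BHK clone expressing human GLP-1 receptor with CRE-driven firefly luciferase, 5×10EE3 cells/well in medium with 2% ovalbumin and 0.2% Pluronic F-68. Compounds at 1×10EE-13 to 1×10EE-6 M final, 3 h at 37° C.; luminescence read, EC50 (pM) from four-parameter fit.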
# [3] = Assay (III) ThT fibrillation assay for physical stability; assay type: physicochemical; details: 250 μM in 10 mM HEPES buffer, 37° C., shaking 960 rpm
# From the text: The purpose of this assay is to assess the physical stability of the glucagon derivatives of the invention in aqueous solutions. Low physical stability of a peptide may lead to amyloid fibril formation, which is observed as well-ordered, thread-like macromolecular structures in the sample, which eventually may lead to gel formation. This has traditionally been measured by visual inspection of the sample. However, that kind of measurement is very subjective and depending on the observer. Therefore, the application of a small molecule indicator probe is much more advantageous. Thioflavin T (ThT) is such a probe and has a distinct fluorescence signature when binding to fibrils [Naiki et al. (1989) Anal. Biochem. 177, 244-249; LeVine (1999) Methods. Enzymol. 309, 274-284]. […] The constant t0 is the time needed to reach 50% of maximum fluorescence. The two important parameters describing fibril formation are the lag-time calculated by t0−2τ and the apparent rate constant kapp 1/τ. Samples were prepared freshly before each assay. Each sample composition is described in the legends. The pH of the sample was adjusted to the desired value using appropriate amounts of concentrated NaOH and HCl. Thioflavin T was added to the samples from a stock solution in H2O to a final concentration of 1 μM. Sample aliquots of 200 μl (250 μM of the glucagon derivative in 10 mM HEPES buffer, pH 7.5) were placed in a 96 well microtiter plate (Packard OptiPlate™-96, white polystyrene). Usually, four or eight replica of each sample (corresponding to one test condition) were placed in one column of wells. The plate was sealed with Scotch Pad (Qiagen). Incubation at given temperature, shaking and measurement of the ThT fluorescence emission were done in a Fluoroskan Ascent FL fluorescence platereader (Thermo Labsystems). The temperature was adjusted to 37° C. The plate was incubated with orbital shaking adjusted to 960 rpm with an amplitude of 1 mm. Fluorescence measurement was done using excitation through a 444 nm filter and measurement of emission through a 485 nm filter. Each run was initiated by incubating the plate at the assay temperature for 10 min. The plate was measured every 20 minutes for a desired period of time. Between each measurement, the plate was shaken and heated as described. After completion of the ThT assay the four or eight replica of each sample was pooled and centrifuged at 20000 rpm for 30 minutes at 18° C. The supernatant was filtered through a 0.22 μm filter and an aliquot was transferred to a HPLC vial. The concentration of peptide in the initial sample and in the filtered supernatant was determined by reverse phase HPLC using an appropriate standard as reference. The percentage fraction the concentration of the filtered sample constituted of the initial sample concentration was reported as the recovery. The measurement points were saved in Microsoft Excel format for further processing and curve drawing and fitting was performed using GraphPad Prism. The background emission from ThT in the absence of fibrils was negligible. The data points are typically a mean of four or eight samples and shown with standard deviation error bars. Only data obtained in the same experiment (i.e. samples on the same plate) are presented in the same graph ensuring a relative measure of fibrillation between experiments. The data set may be fitted to Eq. (1).
# T1 sequence (P43220 24-463): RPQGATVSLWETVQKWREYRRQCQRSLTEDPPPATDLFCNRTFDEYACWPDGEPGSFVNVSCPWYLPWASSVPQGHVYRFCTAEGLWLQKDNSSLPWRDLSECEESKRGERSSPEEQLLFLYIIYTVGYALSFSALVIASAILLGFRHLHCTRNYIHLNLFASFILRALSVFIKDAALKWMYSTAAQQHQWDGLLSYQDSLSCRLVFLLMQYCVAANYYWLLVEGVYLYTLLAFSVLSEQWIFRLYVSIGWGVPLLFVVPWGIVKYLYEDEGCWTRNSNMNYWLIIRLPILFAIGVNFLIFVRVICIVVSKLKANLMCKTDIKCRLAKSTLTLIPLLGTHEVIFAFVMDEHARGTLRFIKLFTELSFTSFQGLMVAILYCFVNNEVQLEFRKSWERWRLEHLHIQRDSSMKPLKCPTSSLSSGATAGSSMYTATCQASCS
SMILES,IC50 [1] [nM],EC50 [2] [pM],"ThT Assay Lag time (h) [Assay (III), pH 7.5] [3] [h]"
"CC[C@H](C)[C@H](NC(=O)[C@H](CC(C)C)NC(=O)[C@H](Cc1c[nH]c2ccccc12)NC(=O)[C@H](CCC(N)=O)NC(=O)[C@@H](NC(=O)[C@H](Cc1ccccc1)NC(=O)[C@H](CC(=O)O)NC(=O)[C@H](CCCNC(=N)N)NC(=O)[C@H](C)NC(=O)[C@H](CCCNC(=N)N)NC(=O)[C@H](CCCNC(=N)N)NC(=O)[C@H](C)NC(=O)[C@H](CC(=O)O)NC(=O)[C@H](CC(C)C)NC(=O)[C@H](Cc1ccc(O)cc1)NC(=O)[C@H](CCCNC(=N)N)NC(=O)[C@H](CO)NC(=O)[C@H](CC(C)C)NC(=O)[C@H](CC(=O)O)NC(=O)[C@H](CO)NC(=O)[C@@H](NC(=O)[C@H](Cc1ccccc1)NC(=O)[C@@H](NC(=O)CNC(=O)[C@H](CCC(N)=O)NC(=O)C(C)(C)NC(=O)[C@@H](N)Cc1c[nH]cn1)[C@@H](C)O)[C@@H](C)O)C(C)C)C(=O)N[C@@H](CCCCNC(=O)CC[C@H](NC(=O)CC[C@H](NC(=O)CC[C@H](NC(=O)CCCCCCCCCCCCCCCCC(=O)O)C(=O)O)C(=O)O)C(=O)O)C(=O)N[C@H](C(N)=O)[C@@H](C)O [Chem. 14, N^ε28-[(4S)-4-carboxy-4-[[(4S)-4-carboxy-4-[[(4S)-4-carboxy-4-(17-carboxyheptadecanoylamino)butanoyl]amino]butanoyl]amino]butanoyl]-[Aib2,Leu10,Arg12,Ala16,Arg20,Ile27,Lys28]-Glucagon amide] (HELM PEPTIDE1{H.[Aib].Q.G.T.F.T.S.D.L.S.R.Y.L.D.A.R.R.A.R.D.F.V.Q.W.L.I.K.T.[am]}|PEPTIDE2{[O=C(O)CCCCCCCCCCCCCCCCC(=O)[*:2]].[gGlu].[gGlu].[gGlu]}$PEPTIDE1,PEPTIDE2,28:R3-4:R2$$$V2.0)",0.1,2,–
"CC[C@H](C)[C@H](NC(=O)[C@H](CC(C)C)NC(=O)[C@H](Cc1c[nH]c2ccccc12)NC(=O)[C@H](CCC(N)=O)NC(=O)[C@@H](NC(=O)[C@H](Cc1ccccc1)NC(=O)[C@H](CCC(=O)O)NC(=O)[C@H](CCCNC(=N)N)NC(=O)[C@H](C)NC(=O)[C@H](CCCNC(=N)N)NC(=O)[C@H](CCCNC(=N)N)NC(=O)[C@H](CO)NC(=O)[C@H](CCC(=O)O)NC(=O)[C@H](CC(C)C)NC(=O)[C@H](Cc1ccc(O)cc1)NC(=O)[C@H](CCCCN)NC(=O)[C@H](CO)NC(=O)[C@@H](NC(=O)[C@H](CC(=O)O)NC(=O)[C@H](CO)NC(=O)[C@@H](NC(=O)[C@H](Cc1ccccc1)NC(=O)[C@@H](NC(=O)CNC(=O)[C@H](CCC(N)=O)NC(=O)C1(NC(=O)[C@@H](N)Cc2c[nH]cn2)CCC1)[C@@H](C)O)[C@@H](C)O)C(C)C)C(C)C)C(=O)N[C@@H](CCCCNC(=O)CC[C@H](NC(=O)CC[C@H](NC(=O)COCCOCCNC(=O)COCCOCCNC(=O)CC[C@H](NC(=O)CC[C@H](NC(=O)CCCCCCCCCCCCCCCCC(=O)O)C(=O)O)C(=O)O)C(=O)O)C(=O)O)C(=O)N[C@H](C(N)=O)[C@@H](C)O [Chem. 19, N^ε28-[(4S)-4-carboxy-4-[[(4S)-4-carboxy-4-[[2-[2-[2-[[2-[2-[2-[[(4S)-4-carboxy-4-[[(4S)-4-carboxy-4-(17-carboxyheptadecanoylamino)butanoyl]amino]butanoyl]amino]ethoxy]ethoxy]acetyl]amino]ethoxy]ethoxy]acetyl]amino]butanoyl]amino]butanoyl]-[Acb2,Val10,Glu15,Arg20,Glu21,Ile27,Lys28]-Glucagon amide] (H-H[Ac4c]QGTFTSDVSKYLESRRAREFVQWLIK([γGlu-γGlu-AEEA-AEEA-γGlu-γGlu-C18 diacid])T-NH2)",–,–,45.0
"CC[C@H](C)[C@H](NC(=O)[C@H](CC(C)C)NC(=O)[C@H](Cc1c[nH]c2ccccc12)NC(=O)[C@H](CCC(N)=O)NC(=O)[C@@H](NC(=O)[C@H](Cc1ccccc1)NC(=O)[C@H](CC(=O)O)NC(=O)[C@H](CCCNC(=N)N)NC(=O)[C@H](C)NC(=O)[C@H](CCCNC(=N)N)NC(=O)[C@H](CCCNC(=N)N)NC(=O)[C@H](CC(C)C)NC(=O)[C@H](CC(=O)O)NC(=O)[C@H](CC(C)C)NC(=O)[C@H](Cc1ccc(O)cc1)NC(=O)[C@H](CCCCN)NC(=O)[C@H](CO)NC(=O)[C@H](CC(C)C)NC(=O)[C@H](CC(=O)O)NC(=O)[C@H](CO)NC(=O)[C@@H](NC(=O)[C@H](Cc1ccccc1)NC(=O)[C@@H](NC(=O)CNC(=O)[C@H](CCC(N)=O)NC(=O)C(C)(C)NC(=O)[C@@H](N)Cc1c[nH]cn1)[C@@H](C)O)[C@@H](C)O)C(C)C)C(=O)N[C@@H](CO)C(=O)N[C@@H](CCCCNC(=O)CC[C@H](NC(=O)CC[C@H](NC(=O)COCCOCCNC(=O)COCCOCCNC(=O)CC[C@H](NC(=O)CCCCCCCCCCCCCCCCC(=O)O)C(=O)O)C(=O)O)C(=O)O)C(N)=O [Chem. 29, N^ε29-[(4S)-4-carboxy-4-[[(4S)-4-carboxy-4-[[2-[2-[2-[[2-[2-[2-[[(4S)-4-carboxy-4-(17-carboxyheptadecanoylamino)butanoyl]amino]ethoxy]ethoxy]acetyl]amino]ethoxy]ethoxy]acetyl]amino]butanoyl]amino]butanoyl]-[Aib2,Leu10,Leu16,Arg20,Ile27,Ser28,Lys29]-Glucagon amide] (H-H[Aib]QGTFTSDLSKYLDLRRARDFVQWLISK([γGlu-γGlu-AEEA-AEEA-γGlu-C18 diacid])-NH2; N-terminus assumed)",–,–,45.0
"CC[C@H](C)[C@H](NC(=O)[C@H](CC(C)C)NC(=O)[C@H](Cc1c[nH]c2ccccc12)NC(=O)[C@H](C)NC(=O)[C@@H](NC(=O)[C@H](Cc1ccccc1)NC(=O)[C@H](CC(=O)O)NC(=O)[C@H](CCCNC(=N)N)NC(=O)[C@H](C)NC(=O)[C@H](CCCNC(=N)N)NC(=O)[C@H](CCCNC(=N)N)NC(=O)[C@H](CC(C)C)NC(=O)[C@H](CC(=O)O)NC(=O)[C@H](CC(C)C)NC(=O)[C@H](Cc1ccc(O)cc1)NC(=O)[C@H](CCCCN)NC(=O)[C@H](CO)NC(=O)[C@H](CC(C)C)NC(=O)[C@H](CC(=O)O)NC(=O)[C@H](CO)NC(=O)[C@@H](NC(=O)[C@H](Cc1ccccc1)NC(=O)[C@@H](NC(=O)CNC(=O)[C@H](CCC(N)=O)NC(=O)C(C)(C)NC(=O)[C@@H](N)Cc1c[nH]cn1)[C@@H](C)O)[C@@H](C)O)C(C)C)C(=O)N[C@@H](CO)C(=O)N[C@@H](CCCCNC(=O)CC[C@H](NC(=O)CC[C@H](NC(=O)COCCOCCNC(=O)COCCOCCNC(=O)CC[C@H](NC(=O)CCCCCCCCCCCCCCCCC(=O)O)C(=O)O)C(=O)O)C(=O)O)C(N)=O [Chem. 31, N^ε29-[(4S)-4-carboxy-4-[[(4S)-4-carboxy-4-[[2-[2-[2-[[2-[2-[2-[[(4S)-4-carboxy-4-(17-carboxyheptadecanoylamino)butanoyl]amino]ethoxy]ethoxy]acetyl]amino]ethoxy]ethoxy]acetyl]amino]butanoyl]amino]butanoyl]-[Aib2,Leu10,Leu16,Arg20,Ala24,Ile27,Ser28,Lys29]-Glucagon amide] (H-H[Aib]QGTFTSDLSKYLDLRRARDFVAWLISK([γGlu-γGlu-AEEA-AEEA-γGlu-C18 diacid])-NH2; N-terminus assumed)",–,–,45.0
